Assay in all cases: Drug affinity chromatography with c-ponatinib and LC-MS/MS (ponatinib interactome)
Assay type in all cases: binding

Experiment [1] concerns the target T1, proteins of U2OS cell lysate (Homo sapiens, UniProt P63244).
T1 construct: Proteins enriched by c-ponatinib from U2OS cell lysate; endogenous in cells; host or cells: U2OS cell lysate
The protocol:
(§1) Drug affinity chromatography
(§2) U2OS cells were grown until approximately 80% confluent before being pelleted and washed with PBS. Cell pellets were subsequently lysed in buffer A (50 mM Tris pH 7.5, 0.8% v/v NP-40, 5% v/v glycerol, 1.5 mM MgCl2, 100 mM NaCl, 25 mM NaF, 1 mM Na3VO4, 1 mM PMSF, 1mM DTT, 10 μg/mL TLCK, 1 μg/ml Leupeptin, 1 μg/ml Aprotinin, 1 μg/ml soy bean trypsin) and lysates prepared […]
(§3) concentration was determined and lysates stored at -80 °C.
(§4) Briefly, 100 μl of bead slurry (50% in isopropanol) were used for each pulldown experiment. Beads were washed with DMSO (3 × 500 μl), and resuspended in DMSO (50 μl), to which the amine (0.025 μmol) and triethylamine (0.75 μl) were added. The beads were incubated at room temperature for 16 h, and depletion of free amine from the supernatant was determined by LC-MS analysis. Ethanolamine (2.5 μl) was then added to block any unreacted NHS sites, and the beads incubated for a further 16 h. Derivatized beads were then washed with DMSO (3 × 500 μl), buffer A (3 × 1 ml), and incubated with cell lysates (2 mg of protein per pulldown, at 6 […]
(§5) Beads and treated lysates were incubated for 2 h at 4 °C before washing with buffer A (5 ml), Buffer B (50 mM HEPES pH 7.5, 100 mM NaCl, 500 μM EDTA, 2.5 ml), and eluted with formic acid (100 mM, 250 μl). Samples were neutralized with triethylammoniumbicarbonate (TEAB, 1M, 62.5 μl) and stored at -20 °C until preparation for proteomic analysis.
(§6) Samples were reduced with DTT (10 mM final concentration) for 30 min at room temperature, alkylated with iodoacetamide (55 mM final concentration) for 30 min at room temperature, diluted to 300 μl with TEAB, and incubated with trypsin (6 μl, 0.2 mg/ml) overnight at 37 °C. The digests were desalted using SEPAC lite columns (Waters), eluted with 69 % v/v MeCN, 0.1 % v/v FA in H2O (1 ml) and dried in vacuo. Dried peptides were stored at -20 °C before resuspension in 2 % v/v MeCN, 1 % v/v FA in H2O (20 μl) for LC-MS/MS analysis.
(§7) LC-MS/MS data acquisition
(§8) Mass spectrometry data was acquired at the Discovery Proteomics Facility (University of Oxford).
(§9) Digested samples were analyzed by nano-UPLC–MS/MS using a Dionex Ultimate 3000 nano UPLC with EASY spray column (75 μm × 500 mm, 2 μm particle size, Thermo Fisher Scientific) with a 60 min gradient of 0.1 % (v/v) formic acid in 5 % (v/v) DMSO to 0.1 % (v/v) formic acid with 35 % (v/v) acetonitrile in 5 % (v/v) DMSO at a flow rate of approximately 250 nl min−1 (600 bar per 40 °C column temperature). Mass spectrometry data was acquired either with an Orbitrap Q Exactive (Survey scans acquired at a resolution of 70,000 @ 200m/z and the 15 most abundant precursors were selected for HCD fragmentation), or an Orbitrap Q Exactive High Field (HF) instrument (survey scans were […]

Experiment [2] has as its target T2, proteins of U2OS cell lysate (Homo sapiens, UniProt Q13233).
T2 construct: Proteins enriched by c-ponatinib from U2OS cell lysate; endogenous in cells; host or cells: U2OS cell lysate
The method, then:
as §1, §2, §3, §4, §5, §6, §7, §8, §9

Experiment [3] addresses T3, proteins of U2OS cell lysate (Homo sapiens, UniProt O95373).
T3 construct: Proteins enriched by c-ponatinib from U2OS cell lysate; endogenous in cells; host or cells: U2OS cell lysate
The protocol: as §1, §2, §3, §4, §5, §6, §7, §8, §9

For experiment [4], the target named is T4, proteins of U2OS cell lysate (Homo sapiens, UniProt Q9BQE3).
T4 construct: Proteins enriched by c-ponatinib from U2OS cell lysate; endogenous in cells; host or cells: U2OS cell lysate
T4 sequence (Q9BQE3 whole entry): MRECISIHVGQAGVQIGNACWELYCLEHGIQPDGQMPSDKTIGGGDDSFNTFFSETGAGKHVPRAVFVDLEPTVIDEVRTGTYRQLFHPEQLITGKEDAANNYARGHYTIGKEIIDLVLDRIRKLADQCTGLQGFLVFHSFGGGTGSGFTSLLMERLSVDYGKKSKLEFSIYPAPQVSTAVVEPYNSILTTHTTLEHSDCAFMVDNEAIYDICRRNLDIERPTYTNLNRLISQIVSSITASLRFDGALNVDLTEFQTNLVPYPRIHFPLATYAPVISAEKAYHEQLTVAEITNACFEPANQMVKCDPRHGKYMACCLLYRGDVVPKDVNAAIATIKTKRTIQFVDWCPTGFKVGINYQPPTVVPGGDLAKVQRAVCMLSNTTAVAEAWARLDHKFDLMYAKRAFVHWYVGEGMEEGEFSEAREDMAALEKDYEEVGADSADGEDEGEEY
The protocol: as §1, §2, §3, §4, §5, §6, §7, §8, §9

Experiment [5] has as its target T5, proteins of U2OS cell lysate (Homo sapiens, UniProt O15372).
T5 construct: Proteins enriched by c-ponatinib from U2OS cell lysate; endogenous in cells; host or cells: U2OS cell lysate
The method, then: as §1, §2, §3, §4, §5, §6, §7, §8, §9

The target of experiment [6] is T6, proteins of U2OS cell lysate (Homo sapiens, UniProt P07900).
T6 construct: Proteins enriched by c-ponatinib from U2OS cell lysate; endogenous in cells; host or cells: U2OS cell lysate
The method, then: as §1, §2, §3, §4, §5, §6, §7, §8, §9

The target in experiment [7] is T7, proteins of U2OS cell lysate (Homo sapiens, UniProt P36957).
T7 construct: Proteins enriched by c-ponatinib from U2OS cell lysate; endogenous in cells; host or cells: U2OS cell lysate
T7 sequence (P36957 68-453): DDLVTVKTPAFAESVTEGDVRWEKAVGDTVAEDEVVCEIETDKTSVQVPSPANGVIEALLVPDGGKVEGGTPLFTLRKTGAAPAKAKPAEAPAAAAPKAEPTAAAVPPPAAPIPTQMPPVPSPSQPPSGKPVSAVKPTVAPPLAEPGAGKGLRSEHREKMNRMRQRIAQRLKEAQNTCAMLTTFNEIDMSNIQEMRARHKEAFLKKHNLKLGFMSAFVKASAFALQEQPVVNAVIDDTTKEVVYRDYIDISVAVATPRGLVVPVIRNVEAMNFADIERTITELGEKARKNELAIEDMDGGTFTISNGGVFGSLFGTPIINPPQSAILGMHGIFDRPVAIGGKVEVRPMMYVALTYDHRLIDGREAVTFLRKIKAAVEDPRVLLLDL
The method, then: as §1, §2, §3, §4, §5, §6, §7, §8, §9

In experiment [8] the target is T8, proteins of U2OS cell lysate (Homo sapiens, UniProt P06733).
T8 construct: Proteins enriched by c-ponatinib from U2OS cell lysate; endogenous in cells; host or cells: U2OS cell lysate
The method, then:
as §1, §2, §3, §4, §5, §6, §7, §8, §9

For experiment [9], the target named is T9, proteins of U2OS cell lysate (Homo sapiens, UniProt Q7RTV0).
T9 construct: Proteins enriched by c-ponatinib from U2OS cell lysate; endogenous in cells; host or cells: U2OS cell lysate
T9 sequence (Q7RTV0 whole entry): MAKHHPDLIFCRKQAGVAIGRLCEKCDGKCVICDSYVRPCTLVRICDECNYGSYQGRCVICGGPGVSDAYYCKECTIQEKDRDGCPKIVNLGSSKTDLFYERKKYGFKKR
The method, then: as §1, §2, §3, §4, §5, §6, §7, §8, §9

For experiment [10], the target named is T10, proteins of U2OS cell lysate (Homo sapiens, UniProt P25786).
T10 construct: Proteins enriched by c-ponatinib from U2OS cell lysate; endogenous in cells; host or cells: U2OS cell lysate
The method, then:
as §1, §2, §3, §4, §5, §6, §7, §8, §9

Experiment [11] has as its target T11, proteins of U2OS cell lysate (Homo sapiens, UniProt P09497).
T11 construct: Proteins enriched by c-ponatinib from U2OS cell lysate; endogenous in cells; host or cells: U2OS cell lysate
The protocol:
as §1, §2, §3, §4, §5, §6, §7, §8, §9

Experiment [12] addresses T12, proteins of U2OS cell lysate (Homo sapiens, UniProt P10515).
T12 construct: Proteins enriched by c-ponatinib from U2OS cell lysate; endogenous in cells; host or cells: U2OS cell lysate
The method, then: as §1, §2, §3, §4, §5, §6, §7, §8, §9

The target of experiment [13] is T13, proteins of U2OS cell lysate (Homo sapiens, UniProt Q14697).
T13 construct: Proteins enriched by c-ponatinib from U2OS cell lysate; endogenous in cells; host or cells: U2OS cell lysate
T13 sequence (Q14697 29-944): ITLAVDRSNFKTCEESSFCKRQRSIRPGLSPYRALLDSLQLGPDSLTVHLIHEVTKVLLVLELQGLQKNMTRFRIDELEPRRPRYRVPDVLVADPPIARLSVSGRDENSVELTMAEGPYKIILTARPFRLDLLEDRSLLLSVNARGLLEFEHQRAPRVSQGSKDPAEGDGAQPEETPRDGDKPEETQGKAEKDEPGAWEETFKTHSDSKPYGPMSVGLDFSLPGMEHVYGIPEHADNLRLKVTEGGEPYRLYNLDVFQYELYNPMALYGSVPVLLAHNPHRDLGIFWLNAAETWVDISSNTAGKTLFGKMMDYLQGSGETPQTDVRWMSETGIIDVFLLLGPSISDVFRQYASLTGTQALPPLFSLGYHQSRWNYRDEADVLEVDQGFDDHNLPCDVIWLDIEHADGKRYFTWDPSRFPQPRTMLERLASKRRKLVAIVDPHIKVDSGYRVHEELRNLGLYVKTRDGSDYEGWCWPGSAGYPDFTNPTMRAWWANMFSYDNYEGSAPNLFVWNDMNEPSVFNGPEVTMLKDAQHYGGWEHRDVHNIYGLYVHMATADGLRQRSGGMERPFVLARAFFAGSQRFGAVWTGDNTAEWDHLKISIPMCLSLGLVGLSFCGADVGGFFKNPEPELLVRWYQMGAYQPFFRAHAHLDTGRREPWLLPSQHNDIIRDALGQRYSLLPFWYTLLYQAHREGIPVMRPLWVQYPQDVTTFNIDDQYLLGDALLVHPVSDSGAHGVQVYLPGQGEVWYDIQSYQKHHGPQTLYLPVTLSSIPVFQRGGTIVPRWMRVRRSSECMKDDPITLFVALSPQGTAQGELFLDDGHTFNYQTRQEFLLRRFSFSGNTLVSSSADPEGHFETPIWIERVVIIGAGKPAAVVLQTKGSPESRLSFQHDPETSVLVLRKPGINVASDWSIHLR
The method, then:
as §1, §2, §3, §4, §5, §6, §7, §8, §9

Experiment [14] has as its target T14, proteins of U2OS cell lysate (Homo sapiens, UniProt Q03252).
T14 construct: Proteins enriched by c-ponatinib from U2OS cell lysate; endogenous in cells; host or cells: U2OS cell lysate
The method, then: as §1, §2, §3, §4, §5, §6, §7, §8, §9

The target of experiment [15] is T15, proteins of U2OS cell lysate (Homo sapiens, UniProt P12270).
T15 construct: Proteins enriched by c-ponatinib from U2OS cell lysate; endogenous in cells; host or cells: U2OS cell lysate
The protocol: as §1, §2, §3, §4, §5, §6, §7, §8, §9

In experiment [16] the target is T16, proteins of U2OS cell lysate (Homo sapiens, UniProt P13073).
T16 construct: Proteins enriched by c-ponatinib from U2OS cell lysate; endogenous in cells; host or cells: U2OS cell lysate
T16 sequence (P13073 23-169): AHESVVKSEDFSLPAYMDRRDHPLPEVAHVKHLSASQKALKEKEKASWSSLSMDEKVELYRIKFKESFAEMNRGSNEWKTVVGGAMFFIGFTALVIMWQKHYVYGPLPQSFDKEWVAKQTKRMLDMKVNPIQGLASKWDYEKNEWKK
The method, then:
as §1, §2, §3, §4, §5, §6, §7, §8, §9

For experiment [17], the target named is T17, proteins of U2OS cell lysate (Homo sapiens, UniProt Q9NX63).
T17 construct: Proteins enriched by c-ponatinib from U2OS cell lysate; endogenous in cells; host or cells: U2OS cell lysate
T17 sequence (Q9NX63 whole entry): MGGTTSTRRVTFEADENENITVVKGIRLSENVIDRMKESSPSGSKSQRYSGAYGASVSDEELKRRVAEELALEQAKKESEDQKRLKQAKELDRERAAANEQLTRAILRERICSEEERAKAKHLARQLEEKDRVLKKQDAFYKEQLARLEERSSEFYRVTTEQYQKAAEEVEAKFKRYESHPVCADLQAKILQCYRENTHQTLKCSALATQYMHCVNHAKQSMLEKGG
The protocol:
as §1, §2, §3, §4, §5, §6, §7, §8, §9

Experiment [18] has as its target T18, proteins of U2OS cell lysate (Homo sapiens, UniProt P39656).
T18 construct: Proteins enriched by c-ponatinib from U2OS cell lysate; endogenous in cells; host or cells: U2OS cell lysate
The protocol: as §1, §2, §3, §4, §5, §6, §7, §8, §9

Results on 2 compounds are retold here after article PMC6120666 (The EMBO Journal, 2018).

T5 sequence (O15372 whole entry): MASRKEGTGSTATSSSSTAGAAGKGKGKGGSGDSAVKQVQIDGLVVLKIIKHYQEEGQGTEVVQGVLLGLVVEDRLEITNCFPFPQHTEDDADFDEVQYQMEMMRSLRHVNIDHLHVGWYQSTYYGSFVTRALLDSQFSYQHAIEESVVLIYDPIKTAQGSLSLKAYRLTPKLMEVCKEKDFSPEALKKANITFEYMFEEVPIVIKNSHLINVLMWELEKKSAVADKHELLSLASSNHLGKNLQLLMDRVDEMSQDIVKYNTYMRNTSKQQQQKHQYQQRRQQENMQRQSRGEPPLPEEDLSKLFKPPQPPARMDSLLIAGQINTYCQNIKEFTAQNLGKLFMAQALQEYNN
T14 sequence (Q03252 whole entry): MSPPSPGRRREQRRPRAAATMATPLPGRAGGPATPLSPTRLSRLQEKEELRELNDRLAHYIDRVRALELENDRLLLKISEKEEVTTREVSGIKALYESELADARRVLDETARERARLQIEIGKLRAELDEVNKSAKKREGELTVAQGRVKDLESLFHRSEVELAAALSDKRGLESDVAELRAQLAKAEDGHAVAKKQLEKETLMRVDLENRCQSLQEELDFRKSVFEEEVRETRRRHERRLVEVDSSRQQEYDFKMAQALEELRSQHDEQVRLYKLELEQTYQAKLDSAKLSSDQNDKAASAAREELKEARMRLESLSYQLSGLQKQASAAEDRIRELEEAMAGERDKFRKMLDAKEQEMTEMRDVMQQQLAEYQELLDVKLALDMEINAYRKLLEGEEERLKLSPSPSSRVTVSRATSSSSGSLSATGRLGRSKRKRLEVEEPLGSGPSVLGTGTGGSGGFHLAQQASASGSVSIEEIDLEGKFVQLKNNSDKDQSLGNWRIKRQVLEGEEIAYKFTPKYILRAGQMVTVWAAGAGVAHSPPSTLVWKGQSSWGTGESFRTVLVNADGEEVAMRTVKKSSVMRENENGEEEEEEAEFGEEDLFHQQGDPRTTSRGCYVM
T2 sequence (Q13233 whole entry): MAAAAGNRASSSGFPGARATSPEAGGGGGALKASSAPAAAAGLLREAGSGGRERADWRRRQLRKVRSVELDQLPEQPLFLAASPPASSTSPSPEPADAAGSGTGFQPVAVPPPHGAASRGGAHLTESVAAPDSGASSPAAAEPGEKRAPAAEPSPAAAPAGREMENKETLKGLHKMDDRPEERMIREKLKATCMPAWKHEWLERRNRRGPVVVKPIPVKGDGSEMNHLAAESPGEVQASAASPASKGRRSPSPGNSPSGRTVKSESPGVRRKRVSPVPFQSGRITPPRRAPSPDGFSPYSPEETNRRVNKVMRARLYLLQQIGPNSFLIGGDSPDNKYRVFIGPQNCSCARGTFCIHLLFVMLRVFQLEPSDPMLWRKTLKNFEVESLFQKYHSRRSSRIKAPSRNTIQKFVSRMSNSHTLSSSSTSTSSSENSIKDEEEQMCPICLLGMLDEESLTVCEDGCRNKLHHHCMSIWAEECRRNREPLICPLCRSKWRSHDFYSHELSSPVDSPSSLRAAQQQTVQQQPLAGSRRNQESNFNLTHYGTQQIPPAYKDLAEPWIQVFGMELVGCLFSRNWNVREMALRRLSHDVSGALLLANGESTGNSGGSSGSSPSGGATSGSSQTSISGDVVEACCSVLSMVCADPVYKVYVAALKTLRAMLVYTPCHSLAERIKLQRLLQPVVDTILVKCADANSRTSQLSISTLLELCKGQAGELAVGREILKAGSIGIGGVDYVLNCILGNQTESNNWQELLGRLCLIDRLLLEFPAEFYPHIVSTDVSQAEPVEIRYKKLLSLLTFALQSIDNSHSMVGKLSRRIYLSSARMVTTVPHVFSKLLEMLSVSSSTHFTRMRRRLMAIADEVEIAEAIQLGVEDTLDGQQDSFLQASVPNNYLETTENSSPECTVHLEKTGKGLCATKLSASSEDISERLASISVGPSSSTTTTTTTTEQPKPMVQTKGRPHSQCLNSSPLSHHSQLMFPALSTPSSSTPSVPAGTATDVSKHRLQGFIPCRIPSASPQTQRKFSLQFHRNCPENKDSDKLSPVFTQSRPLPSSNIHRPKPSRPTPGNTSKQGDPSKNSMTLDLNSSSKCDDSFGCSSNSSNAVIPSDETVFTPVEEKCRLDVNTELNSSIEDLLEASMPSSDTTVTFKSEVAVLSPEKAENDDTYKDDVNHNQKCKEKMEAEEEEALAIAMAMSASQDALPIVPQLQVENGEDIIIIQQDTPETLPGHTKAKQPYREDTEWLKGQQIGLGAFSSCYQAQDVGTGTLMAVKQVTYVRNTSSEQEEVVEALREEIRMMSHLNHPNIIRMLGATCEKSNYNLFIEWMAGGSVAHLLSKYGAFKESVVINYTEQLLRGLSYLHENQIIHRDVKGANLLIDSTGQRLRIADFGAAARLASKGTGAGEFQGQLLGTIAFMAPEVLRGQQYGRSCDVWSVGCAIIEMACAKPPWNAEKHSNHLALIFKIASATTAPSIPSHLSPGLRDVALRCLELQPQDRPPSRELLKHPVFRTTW
T11 sequence (P09497 whole entry): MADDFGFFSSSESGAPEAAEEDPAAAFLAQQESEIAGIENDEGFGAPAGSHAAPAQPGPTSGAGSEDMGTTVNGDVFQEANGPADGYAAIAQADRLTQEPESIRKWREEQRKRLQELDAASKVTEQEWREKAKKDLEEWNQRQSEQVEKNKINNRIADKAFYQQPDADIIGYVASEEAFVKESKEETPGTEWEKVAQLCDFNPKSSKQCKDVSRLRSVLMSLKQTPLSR

With `Cc1ccc(C(=O)Nc2ccc(CN3CCN(C)CC3)c(C(F)(F)F)c2)cc1C#Cc1cnc2cccnn12` [PON], the “Average LFQ PON_WT” value in [1] (GNB2L1, Guanine nucleotide-binding protein subunit beta-2-like 1) is recorded as 22.5999; in [2] (MAP3K1, Mitogen-activated protein kinase kinase kinase 1), 22.7864; in experiment [3] (IPO7, Importin-7), 23.1828; in [4] (TUBA1C, Tubulin alpha-1C chain), 21.711; in experiment [5] (EIF3H;EIF3S3, Eukaryotic translation initiation factor 3 subunit H), 23.1902; in experiment [6] (HSP90AA1, Heat shock protein HSP 90-alpha), 21.9345. The “Average LFQ PON_WT” value in experiment [7] (DLST, Dihydrolipoyllysine-residue succinyltransferase component of 2-oxoglutarate dehydrogenase complex, mitochondrial) is reported as 21.6592; in [8] (ENO1, Alpha-enolase), 21.9992; in [9] (PHF5A, PHD finger-like domain-containing protein 5A) it was 21.937; in [10] (PSMA1, Proteasome subunit alpha type-1), 22.7928; in experiment [11] (CLTB, Clathrin light chain B) it was 22.5074; in experiment [12] (DLAT, Dihydrolipoyllysine-residue acetyltransferase component of pyruvate dehydrogenase complex, mitochondrial), 21.6984. For the same compound, the “Average LFQ PON_WT” value in experiment [13] (GANAB, Neutral alpha-glucosidase AB) was found to be 22.2601; in experiment [14] (LMNB2, Lamin-B2), 22.9109; in experiment [15] (TPR, Nucleoprotein TPR), 22.5124; in [16] (COX4I1, Cytochrome c oxidase subunit 4 isoform 1, mitochondrial), 21.5292; in experiment [17] (CHCHD3, Coiled-coil-helix-coiled-coil-helix domain-containing protein 3, mitochondrial), 22.5984; in experiment [18] (DDOST, Dolichyl-diphosphooligosaccharide--protein glycosyltransferase 48 kDa subunit), 22.9075.

On to `Cc1ccc(C(=O)Nc2ccc(CN3CCN(CCCN)CC3)c(C(F)(F)F)c2)cc1C#Cc1cnc2cccnn12` [c-ponatinib, reference compound], for which the “Average LFQ intensity” value in [1] (captured protein GNB2L1, Rank 153) was found to be 22.5999; in [2] (captured protein MAP3K1, Rank 139), 22.7864; in experiment [3] (captured protein IPO7, Rank 116), 23.1828; in experiment [4] (captured protein TUBA1C, Rank 213), 21.711; in experiment [5] (captured protein EIF3H;EIF3S3, Rank 114), 23.1902; in experiment [6] (captured protein HSP90AA1, Rank 195), 21.9345. Also, the “Average LFQ intensity” value was determined as 21.6592 in experiment [7] (captured protein DLST, Rank 218); 21.9992 in experiment [8] (captured protein ENO1, Rank 190); 21.937 in experiment [9] (captured protein PHF5A, Rank 194); 22.7928 in experiment [10] (captured protein PSMA1, Rank 138); 22.5074 in experiment [11] (captured protein CLTB, Rank 157); 21.6984 in experiment [12] (captured protein DLAT, Rank 215). For the same compound, the “Average LFQ intensity” value was found to be 22.2601 in experiment [13] (captured protein GANAB, Rank 172); 22.9109 in experiment [14] (captured protein LMNB2, Rank 128); 22.5124 in [15] (captured protein TPR, Rank 156); 21.5292 in experiment [16] (captured protein COX4I1, Rank 227); 22.5984 in experiment [17] (captured protein CHCHD3, Rank 154); 22.9075 in [18] (captured protein DDOST, Rank 129).
